Experimental data taken from US9987276B2 (Celgene CAR LLC, priority 2008, dated 2018).
“Also recorded” adds a separate entry of the source.

Assays:
ITK = ITK (Homo sapiens (Human), UniProt Q08881); assay: Omnia assay for potency assessment against active forms of ITK kinase; format: biochemical; conditions: [ITK]=10 nM, [ATP]=25, [Y6-Sox]=10 μM; read-out: ITK Inhibition
Procedure: [ITK]=10 nM, [ATP]=25 [Y6-Sox]=10 μM (ATP KMapp=33 μM).

TEC kinase = TEC kinase (Homo sapiens (Human), UniProt P42680); assay: Mass spectrometry for TEC kinase (tryptic digest); format: binding; conditions: 3 hrs at 10× excess
Procedure: TEC kinase (45 pmols; Invitrogen) was incubated with (I-2) (450 pmols) for 3 hrs at 10× excess prior to tryptic digestion. Iodoacetamide was used as the alkylating agent after compound incubation. […] For tryptic digests a 5 ul aliquot (7.5 pmols) was diluted with 15 ul of 0.1% TFA prior to micro C18 Zip Tipping directly onto the MALDI target using alpha cyano-4-hydroxy cinnamic acid as the matrix (5 mg/ml in 0.1% TFA:Acetonitrile 50:50).
As depicted in FIG. 6, the expected peptide ([…]) to be modified was immediately evident after reaction with I-2 (MI mass of 359.17 Da) at MH+ of 1294.72. The peptide was also quite evident in the control sample as modified by Iodacetamide at MH+ of 992.56. […] There was no evidence of other modified peptides.
The fragmentation spectra of the 360.17 peak did show diagnostic fragments that were apparent in the PSD spectra of the modified peptide at 1294.72 (See FIG. 6).
To further verify the presence of the modified peptides, both the iodoacetamide labeled (992.56) and I-2 labeled (1294.72) were subjected to PSD (MS/MS) analysis. After a database search of the NCBI nr Homo sapien database using Mascot MS/MS Ion Search program the top match was the expected peptide in both cases.
For tryptic digests the instrument was set in Reflectron mode with a pulsed extraction setting of 2200. Calibration was done using the Laser Biolabs Pep Mix standard ([…], 1296.69, 1672.92, 2093.09, 2465.20). For CID/PSD analysis the peptide was selected using cursors to set ion gate timing and fragmentation occurred at a laser power about 20% higher and He was used as the collision gas for CID. Calibration for fragments was done using the P14R fragmentation calibration for the Curved field Reflectron.
TEC kinase (45 pmols; Invitrogen) was incubated with (I-4) (450 pmols) for 3 hrs at 10× excess prior to tryptic digestion. Iodoacetamide was used as the alkylating agent after compound incubation. […]

EGFR-T790M/L858R = EGFR-T790M/L858R (Homo sapiens (Human), UniProt P00533, L858R/T790M); assay: Omnia assay for potency assessment against EGFR (T790M/L858R); conditions: read-out: EGFR (T790M/L858R); EGFR mutant T790M/L858R
BTK = BTK (Homo sapiens (Human), UniProt Q06187); assay: BTK Ramos cellular assay (PLCγ2 phosphorylation); format: cell-based; conditions: Ramos cells, 1 hour compound, anti-IgM stimulation, p-PLCγ2; read-out: BTK Inhibition (IC50), BTK Ramos cellular inhibition
BMX = BMX (Homo sapiens (Human), UniProt P51813); assay: Omnia assay for potency assessment against active forms of BMX kinase; format: biochemical; conditions: [BMX]=2.5 nM, [ATP]=100 μM, [Y5-Sox]=7.5 μM; read-out: BMX Inhibition
Chain of BMX (P51813 whole entry): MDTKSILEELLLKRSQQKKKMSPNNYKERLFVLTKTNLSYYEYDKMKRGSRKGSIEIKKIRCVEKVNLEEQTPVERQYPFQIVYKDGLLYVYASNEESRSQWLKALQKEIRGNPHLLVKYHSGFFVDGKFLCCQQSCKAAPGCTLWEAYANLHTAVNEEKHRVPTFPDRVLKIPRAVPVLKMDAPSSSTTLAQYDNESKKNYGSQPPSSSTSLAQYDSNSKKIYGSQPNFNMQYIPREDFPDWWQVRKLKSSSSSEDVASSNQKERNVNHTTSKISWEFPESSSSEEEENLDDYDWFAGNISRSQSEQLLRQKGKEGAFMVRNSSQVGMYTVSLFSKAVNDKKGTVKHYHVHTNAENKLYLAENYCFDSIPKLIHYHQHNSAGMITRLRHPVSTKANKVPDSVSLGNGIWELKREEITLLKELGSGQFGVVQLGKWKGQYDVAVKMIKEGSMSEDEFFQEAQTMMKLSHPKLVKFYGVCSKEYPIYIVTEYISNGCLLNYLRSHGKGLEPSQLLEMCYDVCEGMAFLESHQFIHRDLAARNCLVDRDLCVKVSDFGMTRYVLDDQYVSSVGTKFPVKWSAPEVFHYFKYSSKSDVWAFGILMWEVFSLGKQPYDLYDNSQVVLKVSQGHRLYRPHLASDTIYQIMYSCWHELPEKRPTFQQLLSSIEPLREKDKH

Chain of TEC kinase (P42680 whole entry): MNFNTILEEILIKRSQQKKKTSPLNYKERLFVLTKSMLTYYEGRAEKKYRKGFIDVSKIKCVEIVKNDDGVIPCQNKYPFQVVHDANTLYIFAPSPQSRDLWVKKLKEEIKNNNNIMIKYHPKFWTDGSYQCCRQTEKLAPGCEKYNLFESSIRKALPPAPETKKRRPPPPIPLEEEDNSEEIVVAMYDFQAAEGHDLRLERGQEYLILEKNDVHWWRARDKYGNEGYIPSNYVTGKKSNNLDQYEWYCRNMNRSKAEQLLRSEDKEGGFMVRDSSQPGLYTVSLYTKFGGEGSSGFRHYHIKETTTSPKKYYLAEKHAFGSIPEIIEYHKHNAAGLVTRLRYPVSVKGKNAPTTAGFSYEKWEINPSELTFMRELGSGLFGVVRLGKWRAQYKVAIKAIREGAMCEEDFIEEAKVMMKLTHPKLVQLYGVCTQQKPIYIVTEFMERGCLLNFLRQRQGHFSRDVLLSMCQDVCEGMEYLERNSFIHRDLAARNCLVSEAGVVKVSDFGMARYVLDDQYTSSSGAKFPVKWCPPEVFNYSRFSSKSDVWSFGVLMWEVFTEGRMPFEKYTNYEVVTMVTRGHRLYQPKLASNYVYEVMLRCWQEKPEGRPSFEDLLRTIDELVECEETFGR
Chain of BTK (Q06187 whole entry): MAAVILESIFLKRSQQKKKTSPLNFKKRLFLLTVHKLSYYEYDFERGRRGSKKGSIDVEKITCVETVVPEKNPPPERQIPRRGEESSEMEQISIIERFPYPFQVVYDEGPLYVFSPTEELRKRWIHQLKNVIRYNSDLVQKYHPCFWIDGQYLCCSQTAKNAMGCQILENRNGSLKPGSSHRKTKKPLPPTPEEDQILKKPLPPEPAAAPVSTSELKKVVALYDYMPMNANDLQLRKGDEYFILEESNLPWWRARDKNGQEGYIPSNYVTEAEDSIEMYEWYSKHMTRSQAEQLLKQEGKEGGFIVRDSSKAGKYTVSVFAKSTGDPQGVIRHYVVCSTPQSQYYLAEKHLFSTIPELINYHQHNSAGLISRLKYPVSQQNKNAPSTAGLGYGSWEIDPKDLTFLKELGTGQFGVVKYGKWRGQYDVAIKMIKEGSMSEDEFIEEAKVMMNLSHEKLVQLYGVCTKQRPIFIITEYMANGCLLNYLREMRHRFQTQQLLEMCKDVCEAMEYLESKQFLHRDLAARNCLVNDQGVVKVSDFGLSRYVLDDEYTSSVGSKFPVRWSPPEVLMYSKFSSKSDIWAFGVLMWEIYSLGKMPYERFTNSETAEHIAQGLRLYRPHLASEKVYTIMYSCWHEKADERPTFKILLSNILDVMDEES
Chain of ITK (Q08881 whole entry): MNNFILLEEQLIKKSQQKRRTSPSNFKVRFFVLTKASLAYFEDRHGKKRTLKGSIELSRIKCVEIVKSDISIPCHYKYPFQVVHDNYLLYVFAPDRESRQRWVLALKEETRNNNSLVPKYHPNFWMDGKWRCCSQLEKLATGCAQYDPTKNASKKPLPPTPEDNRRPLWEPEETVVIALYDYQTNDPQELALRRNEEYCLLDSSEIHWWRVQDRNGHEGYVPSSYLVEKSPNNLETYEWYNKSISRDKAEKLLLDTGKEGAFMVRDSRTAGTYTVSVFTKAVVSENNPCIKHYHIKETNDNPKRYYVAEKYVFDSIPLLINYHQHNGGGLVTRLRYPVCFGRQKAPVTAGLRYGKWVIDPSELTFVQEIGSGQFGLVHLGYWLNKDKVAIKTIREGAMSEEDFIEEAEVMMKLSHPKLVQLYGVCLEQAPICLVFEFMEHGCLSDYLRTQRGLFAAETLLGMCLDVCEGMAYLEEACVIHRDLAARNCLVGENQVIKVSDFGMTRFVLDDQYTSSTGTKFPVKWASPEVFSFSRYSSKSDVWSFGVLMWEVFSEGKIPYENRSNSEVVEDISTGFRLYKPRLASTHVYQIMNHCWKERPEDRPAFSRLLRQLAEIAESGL
Chain of EGFR-T790M/L858R (P00533 25-1210 T790M/L858R): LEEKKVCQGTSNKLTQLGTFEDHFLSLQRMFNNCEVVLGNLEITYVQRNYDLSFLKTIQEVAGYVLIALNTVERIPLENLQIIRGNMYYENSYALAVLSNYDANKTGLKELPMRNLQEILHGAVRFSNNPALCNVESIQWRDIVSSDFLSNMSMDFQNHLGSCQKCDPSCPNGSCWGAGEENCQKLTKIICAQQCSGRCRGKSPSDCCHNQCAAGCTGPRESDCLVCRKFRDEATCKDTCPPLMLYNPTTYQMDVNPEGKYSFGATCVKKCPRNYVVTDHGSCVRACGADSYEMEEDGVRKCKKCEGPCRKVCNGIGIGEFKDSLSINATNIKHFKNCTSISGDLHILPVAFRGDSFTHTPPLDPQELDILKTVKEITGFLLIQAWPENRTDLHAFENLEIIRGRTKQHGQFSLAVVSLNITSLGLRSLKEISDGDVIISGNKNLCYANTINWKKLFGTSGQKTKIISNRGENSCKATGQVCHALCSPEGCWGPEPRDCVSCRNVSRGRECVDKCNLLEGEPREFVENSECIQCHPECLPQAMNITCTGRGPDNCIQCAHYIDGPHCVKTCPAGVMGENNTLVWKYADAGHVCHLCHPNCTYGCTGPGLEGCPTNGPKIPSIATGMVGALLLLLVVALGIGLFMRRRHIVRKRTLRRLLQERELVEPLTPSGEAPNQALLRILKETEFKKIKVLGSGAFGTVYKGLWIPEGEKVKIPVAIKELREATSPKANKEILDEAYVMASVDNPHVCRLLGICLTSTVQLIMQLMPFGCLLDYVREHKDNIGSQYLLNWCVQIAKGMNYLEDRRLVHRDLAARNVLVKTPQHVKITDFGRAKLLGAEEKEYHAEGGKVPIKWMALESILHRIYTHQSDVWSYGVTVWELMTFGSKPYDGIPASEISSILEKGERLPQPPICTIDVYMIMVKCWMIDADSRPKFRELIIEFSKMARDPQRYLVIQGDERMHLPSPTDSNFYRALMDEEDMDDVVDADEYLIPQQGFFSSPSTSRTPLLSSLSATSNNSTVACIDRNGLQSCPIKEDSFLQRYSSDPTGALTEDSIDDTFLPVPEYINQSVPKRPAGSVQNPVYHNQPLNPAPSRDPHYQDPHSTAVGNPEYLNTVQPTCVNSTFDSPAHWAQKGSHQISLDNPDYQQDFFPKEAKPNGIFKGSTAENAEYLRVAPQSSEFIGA

| IC50 (ITK) | IC50 (EGFR-T790M/L858R) | IC50 (BTK) | IC50 (BMX) | SMILES | covalent modification of TEC kinase (Cys449, peptide GCLLNFLR) by mass spectrometry (TEC kinase) |
| --- | --- | --- | --- | --- | --- |
| < 10 nM | < 10 nM | < 10 nM | < 10 nM | C=CC(=O)Nc1cccc(Nc2nc(Nc3ccccc3)ncc2C)c1 [Compound I-7, N-(3-(5-methyl-2-(phenylamino)pyrimidin-4-ylamino)phenyl) acrylamide] | reaction was complete; also recorded: covalent modification |
| 10 to 100 nM | < 10 nM | 10 to 100 nM | < 10 nM | Cc1cccc(Nc2nc(Nc3cccc(NC(=O)/C=C/CN(C)C)c3)ncc2F)c1 [Compound I-4, (E)-4-(dimethylamino)-N-(3-(5-fluoro-4-(m-tolylamino)pyrimidin-2-ylamino)phenyl)but-2-enamide] | reaction was complete; also recorded: covalent modification |
